According to patent US20240132498A1, “CRYSTALLINE FORMS OF 5-(3,4-DIFLUOROBENZYL)-8-((1R,4R)-4-METHYLCYCLOHEXYL)-6,9-DIOXO-2,5,8-TRIAZASPIRO[3.5]NONANE-2-CARBALDEHYDE” (Cytokinetics, Incorporated, priority 2022, published 2024):

Assays:
[1] = Mouse single dose pharmacokinetics; assay type: in vivo; settings: plasma, iv, 0.5 mg/kg, male C57BL/6 mice; for Vd: read-out: Vss
Experimental: Male C57BL/6 mice (18-25 g, 6-8 weeks old) were obtained from Zhejiang Vital River Laboratory Animal Technology Co., Ltd. All animals for IV administration had free access to food and water. The IV dosing was performed through tail vein. The IV dose solution for the Test Articles was prepared in 10% DMA/20% PG/70% HPOCD solution (40% w/v aqueous HPOCD) at a concentration of 0.1 mg/mL. The oral dosing suspension was prepared by suspending Test Article in 0.5% HPMC/0.1% Tween 80 in water at a concentration 0.2 mg/mL. Concentrations of IV and PO doses were measured at the end of the study. Pharmacokinetic (PK) parameters were calculated using the nominal dose values if the measured values were within 20% of the nominal values. A group of 15 mice received the IV dose where the volume was 5 mL/kg. Another group of 15 mice received by oral gavage of Test Article at 1 mg/kg. The oral dose volume was 5 mL/kg. Sparse blood samples were collected from groups of three mice via retro-orbital bleeding, placed into a K2EDTA microtainer tube and maintained on ice until centrifugation to obtain plasma. Each designated group of mice were bled at two-time points. The time points were predose (PO only), 5 (IV only), 15, 30 minutes, 1, 2, 4, 6, 8 and 24 hours postdose. Blood samples were centrifuged and the collected plasma was stored at −80° C. until analysis. Plasma samples were analyzed for Test Article concentrations using an LC/MS/MS method. Briefly, a 50 p L aliquot of each plasma sample was mixed with 100 μL of acetonitrile that contained an internal standard (IS). The mixture was vortexed and centrifuged. Ten (10) p L of the resulting solution was injected onto a reverse-phase C18 column and the resultant peaks detected on a LC/MS/MS equipped with a turbo ionspray ionization source. Sample concentrations below the limit of quantification (BLQ) were treated as zero for PK calculations. Composite PK parameters were estimated from a maximum of two sampling points per mouse and three mice per sampling point and the sparse data option of WinNonlin was used for noncompartmental analysis of the concentration-time data (Phoenix WinNonLin software, version 64; Pharsight, Mountain View, CA). The elimination rate constant (k) was calculated as the absolute value of the slope of the linear regression of logarithm of the concentration versus time for the last three data points of the concentration-time profiles. Apparent elimination half-life (t½) values were calculated as 1n(2)/k. Area under the concentration-time curve (AUC) values were estimated using linear trapezoidal method. AUC values were calculated from the dosing time to the last measurable concentration. AUC∞ values were calculated as the sum of the corresponding AUC and the ratio of the last detectable concentration divided by k. Plasma clearance (CL) was calculated from Dose/AUC. Mean resident time (MRT) was estimated by moment analysis. Volume of distribution at steady state (Vss) was calculated from MRT∞×CL. Maximum concentration (Cmax) and time to reach Cmax (tmax) were recorded as observed. Bioavailability was calculated dAUC∞,po/dAU∞.iv×100% where dAUC was the dose normalized AUC value. Compounds tested were prepared in accordance with the synthetic procedures described herein.

[2] = Rat single dose pharmacokinetics; assay type: in vivo; settings: male, plasma, iv, Sprague Dawley rats; for Vd: read-out: Vss
Experimental: Male Sprague Dawley rats were obtained from Zhejiang Vital River Laboratory Animal Technology Co., Ltd. The animals in IV group had free access to water and food. The animals in PO group were fasted overnight before dosing and provided with food 2 hours post dosing. The IV dose solution was prepared in 10% DMA/50% PG/40% HPOCD solution (40% w/v aqueous HPOCD) at a concentration of 1 mg/mL. The oral dosing suspension was prepared by suspending Test Article in 0.5% HPMC/0.1% Tween 80 in water at a concentration 0.2 mg/mL. Concentrations of IV and PO doses were measured at the end of the study. Pharmacokinetic parameters were calculated using the nominal dose values if the measured values were within 20% of the nominal values. Three rats were dosed IV via a bolus injection via caudal vein. Three rats per dose group were dosed by oral gavage. Blood samples were collected from the jugular vein cannula at predose, 5 (IV only),15, 30 minutes, and 1, 2, 4, 6, and 24 hours post-dose. Blood volumes were replaced with an equal amount of sterile 0.9% saline. Blood samples were centrifuged and the collected plasma was stored at −80° C. for subsequent analysis. Plasma samples were analyzed for Test Article concentrations using a LC/MS/MS method. Briefly, a 50 μL aliquot of each plasma sample was mixed with 100 μL of acetonitrile that contained an internal standard. The mixture was vortexed and centrifuged. Ten (10) μL of the resulting solution was injected onto a reverse-phase C18 column and the resultant peaks detected on a LC/MS/MS equipped with a turbo ionspray ionization source. Sample concentrations below the limit of quantification (BLQ) were treated as zero for pharmacokinetic calculations. Pharmacokinetic parameters were estimated from individual animals using noncompartmental analysis of the concentration-time data (Phoenix WinNonLin software, version 64; Pharsight, Mountain View, CA). The elimination rate constant (k) was calculated as the absolute value of the slope of the linear regression of logarithm (log) of the concentration versus time for the last three data points of the concentration-time profiles. Apparent elimination half-life (t1/2) values were calculated as In(2)/k. Area under the concentration-time curve (AUC) values were estimated using linear trapezoidal method. AUC values were calculated from the dosing time to the last measurable concentration. AUC∞ values were calculated as the sum of the corresponding AUC and the ratio of the last detectable concentration divided by k (AUCt-∞). Plasma clearance (CL) was calculated from Dose/AUC∞. Mean resident time (MRT) was estimated by moment analysis. Volume of distribution at steady state (Vss) was calculated from MRT∞×CL. Maximum concentration (Cmax) and time to reach Cmax (tmax) were recorded as observed. Bioavailability was calculated from the ratio of dose normalized AUC∞,po of individual rats/mean dAUC∞,iv×100% where dAUC was the dose normalized AUC value. Compounds tested were prepared in accordance with the synthetic procedures described herein.

For `O=CN1CC2(C1)C(=O)N([C@H]1CC[C@H](C(F)F)CC1)CC(=O)N2Cc1ccc(C(F)(F)F)cc1` [Comparator E, 8-((1r,4r)-4-(difluoromethyl)cyclohexyl)-6,9-dioxo-5-(4-(trifluoromethyl)benzyl)-2,5,8-triazaspiro[3.5]nonane-2-carbaldehyde], which clearance [1] is on record?
Its clearance is 11.6 mL/min/kg.

What about the half-life [1] of the same compound?
Its half-life is 2.8 h.

What about the Vd [1] of the same compound?
Its Vd is 3.28 L/kg.

And the clearance [2]?
Its clearance is 18.8 mL/min/kg.

What about the half-life [2] of the same compound?
Its half-life is 5.4 h.

What about the Vd [2] of the same compound?
The Vd was 8.23 L/kg.

Which results are given for `C[C@H]1CC[C@H](N2CC(=O)N(Cc3ccc(F)c(F)c3)C3(CN(C=O)C3)C2=O)CC1` [Compound 1, 5-(3,4-difluorobenzyl)-8-((1r,4r)-4-methylcyclohexyl)-6,9-dioxo-2,5,8-triazaspiro[3.5]nonane-2-carbaldehyde]?
clearance [1]: 28.4 mL/min/kg; half-life [1]: 1.77 h; Vd [1]: 4.2 L/kg; clearance [2]: 52.6 mL/min/kg; half-life [2]: 3.34 h; Vd [2]: 13 L/kg

For `O=C1[C@H](C2COC2)N(Cc2ccc(C(F)(F)F)cc2)C(=O)CN1c1ncc(Cl)cc1F` [Comparator C, (S)-1-(5-chloro-3-fluoropyridin-2-yl)-3-(oxetan-3-yl)-4-(4-(trifluoromethyl)benzyl)piperazine-2,5-dione, reference compound], which clearance [1] is on record?
The clearance was 4.67 mL/min/kg.

What about the half-life [1] of the same compound?
Its half-life is 2.6 h.

What about the Vd [1] of the same compound?
Its Vd is 1.39 L/kg.

And the clearance [2]?
The clearance was 20.2 mL/min/kg.

And the half-life [2]?
The half-life was 3.3 h.

What about the Vd [2] of the same compound?
Its Vd is 5.2 L/kg.

Which results are given for `CC(=O)N1CC2(C1)C(=O)N(c1ccc(C#N)cc1F)CC(=O)N2Cc1ccc(C(F)(F)F)cc1` [Comparator D, 4-(2-acetyl-6,9-dioxo-5-(4-(trifluoromethyl)benzyl)-2,5,8-triazaspiro[3.5]nonan-8-yl)-3-fluorobenzonitrile]?
clearance [2]: 8.23 mL/min/kg; half-life [2]: 4.84 h; Vd [2]: 2.98 L/kg

Which results are given for `O=CN1CC2(C1)C(=O)N(c1ccc(F)cc1F)CC(=O)N2Cc1ccc(Cl)cc1` [Comparator A, 5-(4-chlorobenzyl)-8-(2,4-difluorophenyl)-6,9-dioxo-2,5,8-triazaspiro[3.5]nonane-2-carbaldehyde]?
clearance [2]: 29.6 mL/min/kg; half-life [2]: 6.48 h; Vd [2]: 15.1 L/kg
